Experimental findings from patent publication US20220290200A1, “GENETICALLY MODIFIED HOST CELLS PRODUCING GLYCOSYLATED CANNABINOIDS” (OCTARINE BIO IVS, priority 2019, published 2022) are described below.

A short description of data set [1]: Thermodynamic aqueous solubility assay in PBS. The conditions noted are these: for Thermodynamic solubility: room temperature, PBS buffer pH 7.4, duplicate. The method, then: Alternatively, aqueous solubility was determined by a thermodynamic solubility assay as follows. 2.5 mg of test compound was weighed in a glass vial, 0.5 mL of phosphate buffered saline (pH=7.4) was added and the sample briefly vortexed. Samples were then incubated overnight at room temperature on a vial roller system to dissolve as much of the compound as possible into solution. Following incubation, the aqueous solutions were filtered in duplicate ([…]) and the filtrate diluted 1:1 with 100% methanol. Samples were further diluted where necessary and analyzed by HPLC. The concentration of compound in solution was determined by comparison to a standard curve made with authentic analytical standards.

Data set [2] deals with S. cerevisiae strain BY4741. The data set can be described thus: Toxicity of cannabinoids and cannabinoid glycosides in S. cerevisiae (final OD600). Format: cell-based. The conditions noted are these: 3% ethanol; for Final OD600 of S. cerevisiae: 72 h; for toxicity to yeast (final OD600 after 72 h): YP media, 2% glucose, 30° C., concentration range tested. On the procedure:
It is well known that cannabinoids are toxic to microbes, and it is thought that these compounds are produced by cannabis plants as a defense mechanism against infection. […] Product toxicity in microbial strains engineered to produce cannabinoids will hinder high-level production of these molecules, glycosylating these molecules can be used to detoxify them and facilitate higher production titers in engineered microbial strains. […] Cells were inoculated to a starting OD600 of 0.1 and incubated at 30° C. and 200 RPM and the final OD600 was measured after 72 h.

Data set [3] can be described thus: In vitro glycosyl transferase performance, purified enzymes, % conversion of cannabinoids to cannabinoid glycosides. Format: biochemical. To be noted: acceptor CBD, UDP-Glucose. The method in brief:
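His-tagged glycosyl transferases expressed in E. coli XJb (DE3) were Ni-affinity purified. Cannabinoids (in methanol) were incubated with enzyme, UDP-sugar and alkaline phosphatase without shaking at 30 °C for 24 h. Products confirmed by LC-MS/QTOF; % conversion derived from substrate decrease and glycoside peak areas against authentic standards.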

By solubility is commonly meant how much of the substance goes into solution per volume. The low end stands for little dissolved substance, the high end for much dissolved substance.

Turning to `C=C(C)[C@@H]1CCC(C)=C[C@H]1c1c(O)cc(CCCCC)cc1O` [CBD, cannabidiol, reference compound], the solubility in data set [1] (phosphate buffered saline, pH 7.4, aqueous buffer, thermodynamic from solid) was not above 0.0005 mM. The Thermodynamic solubility entry in data set [1] was “Below Detection Limit”. Besides, the “Final OD600 of S. cerevisiae” value is 9.3 in data set [2] (100 μM substrate added), 8.2 in data set [2] (200 μM substrate added), 6.7 in data set [2] (400 μM substrate added) and 4.7 in data set [2] (800 μM substrate added). The “toxicity to yeast (final OD600 after 72 h)” value in data set [2] is reported as “toxic to yeast”.

Compound `C=C(C)[C@@H]1CCC(C)=C[C@H]1c1c(O[C@@H]2O[C@H](CO)[C@@H](O)[C@H](O)[C@H]2O)cc(CCCCC)cc1O[C@@H]1O[C@H](CO)[C@@H](O)[C@H](O)[C@H]1O` [OB6, CBD-1′-O-β-D-glucosyl-3′-O-β-D-glucoside] displayed a Thermodynamic solubility in data set [1] of 11.4 ± 0.75 mM. The “Final OD600 of S. cerevisiae” value in data set [2] (100 μM substrate added) was found to be 9.1; in data set [2] (200 μM substrate added), 8.8; in data set [2] (400 μM substrate added), 9.5; in data set [2] (800 μM substrate added), 8.8. Besides, in data set [2], the “toxicity to yeast (final OD600 after 72 h)” value is “non-toxic at the concentration range tested”. Besides, the “Conversion % (CBD to the glycoside)” value in data set [3] (enzyme PL-214(Cs73Y_GA)) worked out at 57.5%.

Turning to `C=C(C)[C@@H]1CCC(C)=C[C@H]1c1c(O)cc(CCCCC)cc1O[C@@H]1O[C@H](CO)[C@@H](O)[C@H](O)[C@H]1O` [OB1, CBD-1′-O-β-D-glucoside], in data set [3] (enzyme PL-159(Pt88G_GA), in vitro 30° C. 24 h), the “Conversion % (CBD to the glycoside)” value is reported as 75%.
